Counter-ions that a name gives are not always drawn.

In this assay the target is FAK kinase (catalytic construct FAK(410-689)) (Homo sapiens (Human), UniProt Q05397). Put plainly: FAKcd kinase ELISA (inhibition of poly-glu-tyr phosphorylation by FAK(410-689)). Type of assay: biochemical. The note with it: 50 μM final ATP. (An ELISA detects its analyte on a solid surface through an enzyme-linked reagent.)
Chain of FAK kinase (catalytic construct FAK(410-689)) (Q05397 410-689): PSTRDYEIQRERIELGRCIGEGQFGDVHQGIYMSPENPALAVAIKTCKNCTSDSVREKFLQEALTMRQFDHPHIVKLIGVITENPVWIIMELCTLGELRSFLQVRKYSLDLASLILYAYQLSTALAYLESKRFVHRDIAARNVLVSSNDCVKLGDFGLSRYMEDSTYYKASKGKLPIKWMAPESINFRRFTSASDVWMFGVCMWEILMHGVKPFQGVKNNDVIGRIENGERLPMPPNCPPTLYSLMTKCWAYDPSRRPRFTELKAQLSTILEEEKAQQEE
In the case of `COCCNCc1ccc(Nc2ncc(C(F)(F)F)c(NCc3cccnc3N(C)S(C)(=O)=O)n2)cc1` [Compound 388, N-{3-[({2-((4-{[(2-methoxyethyl)amino]methyl}phenyl)amino]-5-(trifluoromethyl)pyrimidin-4-yl}amino)methyl]pyridin-2-yl}-N-methylmethane-sulfonamide], the IC50 (commonly the concentration that inhibits the measured activity by half) is below 0.595 nM.

Compound `CN1CCN(c2cccc(Nc3ncc(C(F)(F)F)c(NCc4cccnc4N(C)S(C)(=O)=O)n3)c2)C1=O` [Compound 367, N-methyl-N-[3-({[2-{[3-(3-methyl-2-oxoimidazolidin-1-yl)phenyl]amino}-5-(trifluoromethyl)pyrimidin-4-yl]amino}methyl)pyridin-2-yl]methanesulfonamide] yielded an IC50 of 1.64 nM.

On to `CN(c1ncccc1CNc1nc(Nc2ccc(C(=O)N3CCC3)cc2)ncc1C(F)(F)F)S(C)(=O)=O` [Compound 253, N-[3-({[2-{[4-(azetidin-1 - ylcarbonyl)phenyl]amino}-5-(trifluoromethyl)pyrimidin-4-yl]amino}methyl)pyridin-2-yl]-N-methylmethane-sulfonarriide], for which the 50% inhibitory concentration (IC50) was 0.6 nM. This IC50 lies about 2.7-fold lower than the previous one.

In turn, `CN1CCC(NC(=O)c2ccc(Nc3ncc(C(F)(F)F)c(NCc4cccnc4N(C)S(C)(=O)=O)n3)cc2)CC1` [Compound 250, 4-({4-[({2-[methyl(methylsulfonyl)amino]pyridin-3-yl}methyl)amino]-5-(trifluoromethyl)pyrimidin-2-yl}amino)-N-(1-methylpiperidin-4-yl)benzamide] displayed an IC50 of 0.69 nM.

Consider `CN(c1ncccc1CNc1nc(Nc2nccc(N)n2)ncc1C(F)(F)F)S(C)(=O)=O` [Compound 298, N-{3-[({2-[(4-aminopyrimidin-2-yl)amino]-5-(trifluoromethyl)pyrimidin-4-yl}amino)methyl]pyridin-2-yl}-N-methylmethane-sulfonamide], for which the half-maximal inhibitory concentration (IC50) is 32.8 nM.

Regarding `CN(c1cccnc1CNc1nc(Nc2ccc(C(N)=O)cc2)ncc1C(F)(F)F)S(C)(=O)=O` [Compound 73, 4-({4-(({3-[methyl(methylsulfonyl)amino]pyridin-2-yl}methyl)amino]-5-(trifluoromethyl)pyrimidin-2-yl}amino)benzamide], the IC50 came to 0.6 nM.

`CN(c1cccc(CNc2nc(Nc3ccc(C#N)c(O)c3)ncc2C(F)(F)F)c1)S(C)(=O)=O` [Compound 392, N-{3-[({2-[(4-cyano-3-hydroxyphenyl)amino]-5-(trifluoromethyl)pyrimidin-4-yl}amino)methyl]phenyl}-N-methylmethanesulfonamide] had an IC50 of 4.51 nM.

`CC(=O)c1cccc(Nc2ncc(C(F)(F)F)c(NCc3cccnc3N(C)S(C)(=O)=O)n2)c1` [Compound 312, N-{3-[({2-[(3-acetylphenyl)amino]-5-(trifluoromethyl)pyrimidin-4-yl}amino)methyl]pyridin-2-yl}-N-methylmethane-sulfonamide]: the half-maximal inhibitory concentration (IC50) stood at 1.26 nM. This IC50 lies about 3.6-fold lower than the previous one.

In turn, `CN(c1ncccc1CNc1nc(Nc2ccc(CNS(C)(=O)=O)cc2)ncc1C(F)(F)F)S(C)(=O)=O` [Compound 30, N-methyl-N-{3-[({2-[(4-{[(methylsulfonyl)amino]methyl}phenyl)amino]-5-(trifluoromethyl)pyrimidin-4-yl}amino)methyl]pyridin-2-yl}methanesulfonamide] registered an IC50 of 0.72 nM. This IC50 lies about 1.8-fold lower than the previous one.

Compound `Cc1ccc(CNc2nc(Nc3ccc(C(=O)N(C)C)cc3)ncc2C(F)(F)F)c(N(C)S(C)(=O)=O)n1` [Compound 231, N,N-dimethyl-4-({4-[({6-methyl-2-[methyl(methylsulfonyl)amino]pyridin-3-yl}methyl)amino]-5-(trifluoromethyl)pyrimidin-2-yl}amino)benzamide] came in with a 50% inhibitory concentration (IC50) of 0.6 nM. This IC50 and that of the compound before are within 1.5-fold of each other.

`CCCN(CCO)C(=O)c1cccc(Nc2ncc(C(F)(F)F)c(NCc3cccnc3N(C)S(C)(=O)=O)n2)c1` [Compound 193, N-(2-hydroxyethyl)-3-({4-[({2-[methyl(methylsulfonyl)amino]pyridin-3-yl}methyl)amino]-5-(trifluoromethyl)pyrimidin-2-yl}amino)-N-propylbenzamide] displayed a half-maximal inhibitory concentration (IC50) of 1.1 nM. This IC50 is about 1.8-fold higher than that of the compound before.

Turning to `CCN(CCOC)C(=O)c1cccc(Nc2ncc(C(F)(F)F)c(NCc3cccnc3N(C)S(C)(=O)=O)n2)c1` [Compound 195, N-ethyl-N-(2-methoxyethyl)-3-({4-[({2-[methyl(methylsulfonyl)amino]pyridin-3-yl}methyl)amino]-5-(trifluoromethyl)pyrimidin-2-yl}amino)benzamide], 6.81 nM corresponded to half-maximal inhibition (IC50).

Compound `CN(c1ncccc1CNc1nc(Nc2ccc(C(=O)NC3CCCOC3)cc2)ncc1C(F)(F)F)S(C)(=O)=O` (stereo not shown) [Compound 263, 4-({4-(({2-[methyl(methylsulfonyl)amino]pyridin-3-yl}methyl)amino]-5-(trifluoromethyl)pyrimidin-2-yl}amino)-N-(tetrahydro-2H-pyran-3-yl)benzamide] returned a 50% inhibitory concentration (IC50) of 0.81 nM. Compared with the last compound, the IC50 is about 8.4-fold lower.

Take `CC(=O)NCCNC(=O)c1ccc(Nc2ncc(C(F)(F)F)c(NCc3cccnc3N(C)S(C)(=O)=O)n2)cc1` [Compound 245, N-[2-(acetylamino)ethyl]-4-({4-[({2-[methyl(methylsulfonyl)amino]pyridin-3-yl}methyl)amino]-5-(trifluoromethyl)pyrimidin-2-yl}amino)benzamide]: the IC50 came out at 2.62 nM.

The compound `CN(C)C(=O)c1ccc(Nc2ncc(C(F)(F)F)c(NCc3cccnc3N(C)S(C)(=O)=O)n2)cc1` [Compound 230, N,N-dimethyl-4-({4-[({2-[methyl(methylsulfonyl)amino]pyridin-3-yl}methyl)amino]-5-(trifluoromethyl)pyrimidin-2-yl}amino)benzamide] registered an IC50 of 2.38 nM.

The compound `Cc1cc(Nc2ncc(C(F)(F)F)c(NCc3cccc(N(C)S(C)(=O)=O)c3)n2)ccc1C(N)=O` [Compound 340, 2-methyl-4-{[4-({3-[methyl(methylsulfonyl)amino]benzyl}amino)-5-(trifluoromethyl)pyrimidin-2-yl]amino}benzamide] gave a 50% inhibitory concentration (IC50) below 0.595 nM.

Consider `COCC(=O)N1CCC(Nc2ncc(C(F)(F)F)c(NCc3cccnc3N(C)S(C)(=O)=O)n2)CC1` [Compound 55, N-[3-({[2-{[1-(methoxyacetyl)piperidin-4-yl]amino}-5-(trifluoromethyl)pyrimidin-4-yl]amino}methyl)pyridin-2-yl]-N-methylmethane-sulfonamide], for which the IC50 stood at 188 nM.

Regarding `CN(c1ncccc1CNc1nc(Nc2ccc(C(=O)N3CC[C@H](O)C3)cc2)ncc1C(F)(F)F)S(C)(=O)=O` [Compound 267, N-{3-[({2-[(4-{[(3S )-3-hydroxypyrrolidin-1-yl]carbonyl}phenyl)amino]-5-(trifluoromethyl)pyrimidin-4-yl}amino)methyl]pyridin-2-yl}-N-methylmethane-sulfonamide], the 50% inhibitory concentration (IC50) was found to be 1.15 nM.

On to `Cc1cccc(CNc2nc(Nc3ccccc3)ncc2C(F)(F)F)c1N(C)S(C)(=O)=O` [Compound 64, N-[2-({[2-anilino-5-(trifluoromethyl)pyrimidin-4-yl)amino}methyl)-6-methylphenyl]-N-methylmethanesulfonamide], for which the 50% inhibitory concentration (IC50) was 0.6 nM.

For the compound `CN(c1ncccc1CNc1nc(Nc2ccc(C(N)=O)cc2F)ncc1C(F)(F)F)S(C)(=O)=O` [Example 14, 3-fluoro-4-({4-[({2-[methyl(methylsulfonyl)amino]pyridin-3-yl}methyl)amino]-5-(trifluoromethyl)pyrimidin-2-yl}amino)benzamide formic acid salt], the concentration for half-maximal inhibition (IC50) was below 0.595 nM.

In turn, `CNC(=O)c1ccc(Nc2ncc(C(F)(F)F)c(NCc3nccnc3N(C)S(C)(=O)=O)n2)c(F)c1` [Compound 369, 3-fluoro-N-methyl-4-({4-[({3-[methyl(methylsulfonyl)amino]pyrazin-2-yl}methyl)amino]-5-(trifluoromethyl)pyrimidin-2-yl}amino)benzamide] displayed an IC50 of 1.49 nM.

As for `CC(=O)NCC(=O)Nc1cccc(Nc2ncc(C(F)(F)F)c(NCc3nccnc3N(C)S(C)(=O)=O)n2)c1` [Compound 397, N-2-acetyl-N-[3-({4-[({3-[methyl(methylsulfonyl)amino]pyrazin-2-yl}methyl)amino]-5-(trifluoromethyl)pyrimidin-2-yl}amino)phenyl]glycinamide], the midpoint of inhibition, the IC50, lay at 1.51 nM.

As for `CN(c1cccnc1CNc1nc(Nc2cc(C(N)=O)ccc2F)ncc1C(F)(F)F)S(C)(=O)=O` [Compound 378, 4-fluoro-3-({4-[({3-[methyl(methylsulfonyl)amino]pyridin-2-yl}methyl)amino]-5-(trifluoromethyl)pyrimidin-2-yl}amino)benzamide], half-maximal inhibition (IC50) required 1.94 nM.

`CN(c1ncccc1CNc1nc(Nc2ccc(C(=O)NCCO)cc2)ncc1C(F)(F)F)S(C)(=O)=O` [Compound 244, N-(2-hydroxyethyl)-4-({4-[({2-[methyl(methylsulfonyl)amino]pyridin-3-yl}methyl)amino]-5-(trifluoromethyl)pyrimidin-2-yl}amino)benzamide] registered an IC50 of 1.11 nM.

Consider `Cc1cccc(NS(C)(=O)=O)c1CNc1nc(Nc2ccc(-c3nnn[nH]3)cc2)ncc1C(F)(F)F` [Compound 287, N-[3-methyl-2-({[2-{[4-(1H-tetrazol-5-yl)phenyl]amino}-5-(trifluoromethyl)pyrimidin-4-yl]amino}methyl)phenyl]methanesulfonamide], for which the 50% inhibitory concentration (IC50) amounted to 1.95 nM.

Compound `CC(O)c1ccc(Nc2ncc(C(F)(F)F)c(NCc3ncccc3N(C)S(C)(=O)=O)n2)cc1` (stereo not shown) [Compound 329, N-[2-({[2-{[4-(1-hydroxyethyl)phenyl}amino}-5-(trifluoromethyl)pyrimidin-4-yl]amino}methyl)pyridin-3-yl)-N-methylmethane-sulfonamide] came in with a half-inhibitory concentration (IC50) of 0.914 nM.

With `CC[C@@H](CO)NC(=O)c1cccc(Nc2ncc(C(F)(F)F)c(NCc3cccnc3N(C)S(C)(=O)=O)n2)c1` [Compound 183, N-[(1S)-1-(hydroxymethyl)propyl]-3-({4-[({2-[methyl(methylsulfonyl)amino]pyridin-3-yl}methyl)amino]-5-(trifluoromethyl)pyrimidin-2-yl}amino)benzamide], half-maximal inhibition (IC50) required 1.96 nM.

For the compound `Cc1ncc(CNc2nc(Nc3cccc(C(N)=O)c3)ncc2C(F)(F)F)c(N(C)S(C)(=O)=O)n1` [Compound 296, 3-({4-[({2-methyl-4-[methyl(methylsulfonyl)amino]pyrimidin-5-yl}methyl)amino]-5-(trifluoromethyl)pyrimidin-2-yl}amino)benzamide], the midpoint of inhibition, the IC50, lay at 3.89 nM.

The values above are taken from patent publication US10450297B2, “Sulfonyl amide derivatives for the treatment of abnormal cell growth” (Pfizer, Inc., priority 2007, dated 2019).
